{
  "source": "patent US20150125452A1",
  "about": "“COMBINATION TREATMENTS COMPRISING C-MET ANTAGONISTS AND B-RAF ANTAGONISTS” (GENENTECH, INC., priority 2011, published 2015)",
  "key": {"[1]": {"tested_on": "H358 EGF-like ligand-driven NSCLC cells", "assay": "Syto 60 long-term staining with erlotinib and HGF", "type": "cell-based, Human", "conditions": "erlotinib 5 μM, HGF 50 ng/mL, every 3 days for 9 days", "experimental": "Cells were co-treated with 50 ng/mL HGF. Error bars represent mean+/−s.e.m. […] FIG. 8C, Syto 60 staining of H2228 EML4-ALK translocated NSCLC cells treated with TAE684 (2 μM) in the presence and absence of HGF (50 ng/mL) as indicated. Cells were treated every 3 days for 9 days. FIG. 8D, Syto 60 staining of H358 EGF-like ligand-driven NSCLC cells treated with Erlotinib (5 μM) in the presence and absence of HGF (50 ng/mL) as indicated. Cells were treated every 3 days for 9 days."}, "[2]": {"tested_on": "AKT and ERK phosphorylation", "assay": "Immunoblots of survival pathway re-activation", "type": "cell-based, Human", "experimental": "FIGS. 2A-2C: pro-survival pathway re-activation correlated with RTK ligand rescue. FIG. 2A, Immunoblots showing the effect of acute RTK ligand treatment (50 ng/mL) on AKT and ERK phosphorylation following kinase inhibition (1 μM, 2 h). RTK ligand rescue is indicated, grey squares indicates complete rescue and black squares indicates partial rescue as determined by the initial screen (FIG. 1B). […] Cells were co-treated with 50 ng/mL RTK ligand in the presence of the appropriate secondary kinase inhibitor (0.5 μM) as indicated. […] Error bars represent mean+/−s.e.m. FIG. 2C, Immunoblots showing the effect of acute kinase inhibition (1 μM) in the presence and absence of RTK ligands (50 ng/mL, 2 h) on AKT and ERK phosphorylation. Cells were co-treated with secondary kinase inhibitor (0.5 μM) as appropriate.\nCell lysates were harvested using Nonidet-P40 lysis buffer, supplemented with Halt protease and phosphatase inhibitor cocktail (Thermo Scientific) and immunodetection of proteins was carried out using standard protocols. The phospho-HER2 (Y1248; #2247), HER2 (#2242), phospho-HER3 (Y1289; #4791), phospho-MET (Y1234/5; #3126), PDGFRα (#5241), phospho-FRS2α (Y196; #3864), IGF-1Rβ (#3027), phospho-ALK (Y1604; #3341), AKT (#9272), phospho-ERK (T202/Y204; #9101), ERK (#9102), GAPDH (#2118) and β-Tubulin (#2146) antibodies were purchased from Cell Signaling Technologies. Antibodies to HER3 (SC-285), MET (SC-10), phospho-PDGFRα (SC-12911), FRS2α (SC-8318), FGFR1 (SC-7945), FGFR2 (SC-122), FGFR3 (SC-13121) and ALK (SC-25447) were purchased from Santa Cruz Biotechnologies. Phospho-AKT (S473; #44-621G) antibody was purchased from Invitrogen. Phospho-EGFR (Y1068; ab5644) antibody was purchased from Abeam. EGFR (#610017) antibody was purchased from BD Biosciences. PARP (#14-6666-92) antibody was purchased from eBioscience. Densitometry was carried out using ImageJ software."}},
  "data": [
    {"substance": "HGF: recombinant human RTK ligand (MET ligand) purchased from Peprotech", "values": [
      {"measurement": "effect of HGF on longer-term erlotinib treatment", "setting": "[1]", "result": "rescued"},
      {"measurement": "PI3K/MAPK pathway re-activation by RTK ligand in presence of kinase inhibitor", "setting": "[2]; 50 ng/mL ligand, kinase inhibitor 1 μM, 2 h", "result": "re-activated both PI3K and MAPK pathways"},
      {"measurement": "re-activation of PI3K and MAPK signalling in HER2 amplified cell lines", "setting": "[2]; AU565, HCC1954 (MET positive), BT474 (MET negative), lapatinib 1 μM, HGF 50 ng/mL, 2 h", "result": "re-activated PI3K and MAPK signalling pathways specifically in MET-positive, but not in MET-negative cells"},
      {"measurement": "persistence of redundant RTK activation and downstream survival signalling", "setting": "[2]; AU565 cells, lapatinib 1 μM and HGF 50 ng/mL", "result": "at least 48 hours"},
      {"measurement": "re-activation of AKT and ERK activity in presence of TAE684", "setting": "[2]; H2228 cells", "result": "able to re-activate AKT and ERK activity"},
      {"measurement": "ERK and AKT activation in presence of TAE684", "setting": "[2]; H3122 cells, TAE684 1 μM, HGF 50 ng/mL, 2 h", "result": "promotes ERK and AKT activation"},
      {"measurement": "re-activation of MAPK signalling (pERK) in BRAF mutant cell lines", "setting": "[2]; PLX[…] 1 μM, HGF 50 ng/mL, 2 h, MET positive versus MET negative lines", "result": "could re-activate MAPK signalling in cell lines that were rescued by HGF"}
    ]}
  ]
}
